Laboratory results reported in patent US8354398B2, “Substituted isoxazole compounds” (Bristol-Myers Squibb Company, priority 2009, dated 2013).
Blank lines part the entries; values can stand above or below the compound they belong to.

How the values were obtained:
S1P1 [1] = target: T1, S1P1 (Homo sapiens, UniProt P21453); assay: S1P1 Binding Assay (33P-S1P ligand competition, membranes from CHO cells); parameters: expressed in transfected cells; host or cells: CHO cells; settings: membranes of CHO cells expressing human S1P1; 0.03 nM 33P-S1P; 60 min room temperature
T1 sequence (P21453 whole entry): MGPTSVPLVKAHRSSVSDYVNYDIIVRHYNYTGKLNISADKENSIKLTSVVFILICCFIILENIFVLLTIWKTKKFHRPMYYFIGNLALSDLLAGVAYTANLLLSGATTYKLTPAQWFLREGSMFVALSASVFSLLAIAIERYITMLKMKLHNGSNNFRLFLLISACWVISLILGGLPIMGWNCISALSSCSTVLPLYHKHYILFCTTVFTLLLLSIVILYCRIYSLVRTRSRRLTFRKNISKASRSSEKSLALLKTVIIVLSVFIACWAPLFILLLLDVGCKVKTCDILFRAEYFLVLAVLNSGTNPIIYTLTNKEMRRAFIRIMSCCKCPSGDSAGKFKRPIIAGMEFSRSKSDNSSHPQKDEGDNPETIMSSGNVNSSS
Method: Membranes were prepared from CHO cells expressing human S1P1. Cells were dissociated in buffer containing 20 mM HEPES, pH 7.5, 50 mM NaCl, 2 mM EDTA and Protease Inhibitor cocktail (Roche), and disrupted on ice using the Polytron homogenizer. The homogenate was centrifuged at 20,000 rpm (48,000 g) and the supernatant was discarded. The membrane pellets were resuspended in buffer containing 50 mM HEPES, pH 7.5, 100 mM NaCl, 1 mM MgCl2, 2 mM EDTA and stored in aliquots at −80° C. after protein concentration determination.
Membranes (2 μg/well) and 0.03 nM final concentration of ^33P-S1P ligand (1 mCi/ml, American Radiolabeled Chemicals) were added to the compound plates. Binding was performed for 60 min at room temperature, terminated by collecting the membranes onto GF/B filter plates, and radioactivity was measured by TOPCOUNT®. The competition data of the test compounds over a range of concentrations was plotted as percentage inhibition of radioligand specific binding. The IC50 is defined as the concentration of competing ligand needed to reduce specific binding by 50%.
Compounds of the present invention and Comparative Compound A were tested in the S1P1 binding assay described hereinabove and the results rounded to two digits, shown in Table A were obtained. In some instances, the value is an average of multiple experiments where N is the number of experiments conducted that provided satisfactory dose response curves. When more than one batch of an example was tested, the value presented is from the batch which allowed a comparison of GTPγS S1P1 and GTPγS S1P3 in Method A (Data shown in Table B). Data was not averaged across different batches of an example compound.

circulating lymphocytes [2] = assay: Blood Lymphocyte Reduction Assay (BLR) in mice; assay type: in vivo; settings: BALB/c mice, oral, vs vehicle group
Method: (§1) Lewis rats or BALB/c mice were dosed orally with test article (as a solution or suspension in the vehicle) or vehicle alone (polyethylene glycol 300, “PEG300”). Blood was drawn at 4 hr and 24 h by retro-orbital bleeding. Blood lymphocyte counts were determined on an ADVIA® 120 Hematology Analyzer (Siemens Healthcare Diagnostics). The results were measured as a reduction in the percentage of circulating lymphocytes as compared to the vehicle treated group at the 4 hr and 24 hr measurement. The results represent the average results of all animals within each treatment group (n=3-4).
(§2) Examples 1 and 2 were tested in the Blood Lymphocyte Reduction assay (BLR) described hereinabove and the results are shown in Table D for rats and Table E for mice.

S1P1 [3] = target: T1, S1P1; assay: Method A: Receptor [35S] GTPγS Binding Assay, membranes from S1P1/CHO cells; assay type: biochemical; parameters: expressed in transfected cells; host or cells: S1P1/CHO cells
Method: (§3) Compounds were loaded in a 384 Falcon v-bottom plate (0.5 μl/well in a 3-fold dilution). Membranes prepared from S1P1/CHO cells or EDG3-Ga15-bla HEK293T cells were added to the compound plate (40 μl/well, final protein […]) with MULTIDROP®. [^35S]GTP (1250 Ci/mmol, Perkin Elmer) was diluted in assay buffer: 20 mM HEPES, pH7.5, 10 mM MgCl2, 150 mM NaCl, 1 mM EGTA, 1 mM DTT, 10 μM GDP, 0.1% fatty acid free BSA, and 10 mg/ml Saponin to 0.4 nM. 40 μl of the [^35S] GTP solution was added to the compound plate with a final concentration of 0.2 nM. The reaction was kept at room temperature for 45 min. At the end of incubation, all the mixtures in the compound plate were transferred to a 384 well FB filter plates via GPCR robot system. The filter plate was washed with water 4 times by using the modified manifold Embla plate washer and dried at 60° C. for 45 min. 30 μl of MicroScint 20 scintillation fluid was added to each well for counting at Packard TOPCOUNT®. EC50 is defined as the agonist concentration that corresponds to 50% of the Ymax (maximal response) obtained for each individual compound tested.
(§4) Compounds of the present invention and Comparative Compound A were tested in the Receptor [^35S] GTPγS Binding Assays (Method A) and Receptor [35S] In some instances, the value is an average of multiple experiments where N is the number of experiments conducted that provided satisfactory dose response curves. When more than one batch of an example was tested, the value presented is from a batch which allowed a comparison of GTPγS S1P1 and GTPγS S1P3 in which the most number of experiments were performed. Preferably, the same batch was examined in Method A and Method B. Data was not averaged across different batches of an example compound.

S1P1 [4] = target: T1, S1P1; assay: Method B: Receptor [35S] GTPγS SPA Binding Assay, membranes from S1P1 transfected CHO cells; assay type: biochemical; parameters: expressed in transfected cells; host or cells: S1P1/CHO cells
Method: (§5) Membranes prepared from S1P1 or S1P3 transfected CHO cells (2 μg protein) were incubated in 96-well white plates (CORNING® 3693) with test compounds diluted in DMSO, in 50 μl of reaction mixture containing 7.5 μl WGA-PVT beads (20 mg/ml), and 5 μM GDP, 20 mM HEPES pH 7.4, 100 mM NaCl, 1 mM EDTA, 5 mM MgCl2, 10 μg/ml saponin, 0.1% BSA, and 1 μM leupeptin. The assay was initiated with the addition of 25 μl of 0.2 nM [^35S]-GTPγS (1250 Ci/mmol; NEN) in assay buffer. After 90 min incubation at room temperature, spin the plate at 1000 rpm for 5 min. The bound radionuclides were measured at TOPCOUNT®, expressed as % response relative to S1P (1 μM) activation. Data was analyzed using the four parameter logistic equation in Excel. The four parameters in the equation, Y=A+((B−A)/(1+((EC50/X)^D))), are described as following: A is the Y value (agonist activity) at the bottom plateau; B is the Y value at the top plateau; EC50 is the X value (agonist concentration) when the response is halfway between bottom and top; D is Hill coefficient. Curves were not generated for compounds having Ymax values were below 50%.
as §4

S1P3 [5] = target: T2, S1P3 (Homo sapiens, UniProt Q99500); assay: Method B: Receptor [35S] GTPγS SPA Binding Assay, membranes from S1P3 transfected CHO cells; assay type: biochemical; parameters: expressed in transfected cells; host or cells: CHO cells; settings: S1P3 transfected CHO cell membranes, NC = a satisfactory dose response curve was not obtained
Method: as §5, §4
Target sequence in this assay (Q99500 whole entry, species assumed): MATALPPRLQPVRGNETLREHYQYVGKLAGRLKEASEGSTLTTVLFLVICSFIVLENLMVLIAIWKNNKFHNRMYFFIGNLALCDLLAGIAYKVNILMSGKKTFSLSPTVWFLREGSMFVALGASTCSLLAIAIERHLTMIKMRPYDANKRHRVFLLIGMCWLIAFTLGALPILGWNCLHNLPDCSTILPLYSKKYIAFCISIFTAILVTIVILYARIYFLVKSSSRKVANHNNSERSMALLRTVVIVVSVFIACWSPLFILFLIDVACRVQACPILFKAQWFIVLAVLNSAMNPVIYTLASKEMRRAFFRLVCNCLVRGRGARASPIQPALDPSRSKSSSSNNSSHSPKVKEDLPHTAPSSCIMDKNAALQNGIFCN

circulating lymphocytes [6] = assay: Blood Lymphocyte Reduction Assay (BLR) in rats; assay type: in vivo; settings: Lewis rats, oral, vs vehicle group
Method: as §1, §2

S1P3 [7] = target: T2, S1P3; assay: Method A: Receptor [35S] GTPγS Binding Assay, membranes from EDG3-Ga15-bla HEK293T cells; assay type: biochemical; parameters: expressed in transfected cells; host or cells: EDG3-Ga15-bla HEK293T cells; settings: EDG3-Ga15-bla HEK293T cell membranes
Method: as §3, §4
Target sequence in this assay (Q99500 whole entry): as the sequence (Q99500 whole entry, species assumed) above

circulating lymphocytes [8] = settings: animals and humans; cited from earlier work
[9] = clinical studies, first 24 hours of treatment; cited from earlier work

- IC50 (S1P1 [1]): 0.05 nM
- EC50 (S1P1 [3]; Method A, S1P1/CHO cell membranes): 1.7 nM
- GTPγS S1P3/S1P1 (Method A) (S1P1 [3]; ratio of GTPγS S1P3 EC50 to GTPγS S1P1 EC50, Method A): 2,100
- EC50 (S1P1 [4]; Method B SPA, S1P1 transfected CHO cell membranes, NC = a satisfactory dose response curve was not obtained): 0.076 nM
- GTPγS S1P3/S1P1 (Method B) (S1P1 [4]; ratio of GTPγS S1P3 EC50 to GTPγS S1P1 EC50, Method B): 4,600
- EC50 (S1P3 [5]): 350 nM
- EC50 (S1P3 [7]): 3600 nM
Compound: O=C(O)C1CN(Cc2ccc(-c3noc(-c4noc(-c5ccccc5)c4C(F)(F)F)n3)cc2)C1 [Example 2, 1-(4-(5-(5-Phenyl-4-(trifluoromethyl)isoxazol-3-yl)-1,2,4-oxadiazol-3-yl)benzyl)azetidine-3-carboxylic acid]
- % reduction in lymphocytes at 4 hr. (circulating lymphocytes [2]; 0.001 mg/kg): −26%
- % reduction in lymphocytes at 24 hr. (circulating lymphocytes [2]; 0.001 mg/kg): 17%
- % reduction in lymphocytes at 4 hr. (circulating lymphocytes [2]; 0.01 mg/kg): −4%
- % reduction in lymphocytes at 24 hr. (circulating lymphocytes [2]; 0.01 mg/kg): 15%
- % reduction in lymphocytes at 4 hr. (circulating lymphocytes [2]; 0.1 mg/kg): 70%
- % reduction in lymphocytes at 24 hr. (circulating lymphocytes [2]; 0.1 mg/kg): 62%
- % reduction in lymphocytes at 4 hr. (circulating lymphocytes [2]; 1.0 mg/kg): 83%
- % reduction in lymphocytes at 24 hr. (circulating lymphocytes [2]; 1.0 mg/kg): 84%
- % reduction in lymphocytes at 4 hr. (circulating lymphocytes [6]; 0.03 mg/kg): 70%
- % reduction in lymphocytes at 24 hr. (circulating lymphocytes [6]; 0.03 mg/kg): 56%
- % reduction in lymphocytes at 4 hr. (circulating lymphocytes [6]; 0.3 mg/kg): 80%
- % reduction in lymphocytes at 24 hr. (circulating lymphocytes [6]; 0.3 mg/kg): 79%
- % reduction in lymphocytes at 4 hr. (circulating lymphocytes [6]; 1.0 mg/kg): 84%
- % reduction in lymphocytes at 24 hr. (circulating lymphocytes [6]; 1.0 mg/kg): 85%

Compound: CCCCCCCCc1ccc(CCC(N)(CO)CO)cc1 [FTY720]
- circulating lymphocytes (circulating lymphocytes [8]): reduce circulating lymphocytes
- bradycardia on treatment [9]: results in bradycardia
